The source made the active and inactive calls. No cut-off for these calls is given here.
How the values were obtained:
Homo sapiens = organism: Homo sapiens; assay: (§1) Inhibition of human recombinant protein farnesyl transferase expressed in Escherichia coli
[1] = Inhibition of geranylgeranyl protein transferase
[2] = Cytotoxicity against mouse NIH/3T3 cells at 50 uM; format: cell-based; conditions: nih3t3, 50 µM
NIH3T3 = assay: Inhibition of Ras expression in mouse NIH/3T3 cells at 50 uM; format: functional, cell-based
[3] = biological target: T1, Squalene synthase (Homo sapiens) (UniProt P37268); assay: Inhibition of squalene synthase
T1 sequence (whole entry): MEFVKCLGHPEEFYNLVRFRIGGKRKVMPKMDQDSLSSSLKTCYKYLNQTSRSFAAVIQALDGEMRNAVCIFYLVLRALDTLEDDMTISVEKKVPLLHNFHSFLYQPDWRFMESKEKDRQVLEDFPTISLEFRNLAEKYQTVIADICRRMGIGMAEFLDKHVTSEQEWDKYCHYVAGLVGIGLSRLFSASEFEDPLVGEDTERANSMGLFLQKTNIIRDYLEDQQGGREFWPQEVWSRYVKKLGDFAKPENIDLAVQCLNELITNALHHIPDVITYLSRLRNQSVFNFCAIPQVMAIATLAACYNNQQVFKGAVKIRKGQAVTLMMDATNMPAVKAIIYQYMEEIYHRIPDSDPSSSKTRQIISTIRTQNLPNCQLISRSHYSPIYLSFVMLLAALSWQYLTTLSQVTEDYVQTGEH

[4] = as §1

Row | Activity (Homo sapiens) | Activity [1] | Activity [3] | IC50 [4] [µM] | SMILES | Activity [2] | Activity (NIH3T3)
1 | inactive | – | – | – | COC(=O)C[C@](C)(O)CC(=O)O[C@@H]1C[C@]2(C)C3=C(CC[C@H]2C(C)(C)C1=O)[C@]1(C)CC[C@H]([C@H](C)CCC(O)C(C)(C)O)[C@@]1(C)CC3 (some centres not stated) | – | –
2 | – | inactive | inactive | 1.3 | C[C@H](CCC(O)C(C)(C)O)[C@H]1CC[C@@]2(C)C3=C(CC[C@]12C)[C@@]1(C)C[C@@H](OC(=O)CC(C)(O)CC(=O)O)C(=O)C(C)(C)[C@@H]1CC3 (some centres not stated) [CLAVARIC ACID] | Non-toxic | Active
3 | – | – | – | 10.5 | C[C@H](CCC(O)C(C)(C)O)[C@H]1CC[C@@]2(C)C3=C(CC[C@]12C)[C@@]1(C)C[C@@H](O)C(=O)C(C)(C)[C@@H]1CC3 (some centres not stated) [CLAVARINONE] | – | –
